Usually IC50 stands for the concentration at which inhibition is half-maximal. Low readings indicate inhibition by little substance, high ones a need for much substance.

Results on 21 compounds are retold here after US11702422B2, “Imidazopyridazines as modulators of IL-17” (Janssen Pharmaceutica NV, priority 2020, dated 2023).

Experiment [1] addresses IL-17A(FLAG-Tagged): IL-17RA(His-Tagged) (Homo sapiens, UniProt Q16552, K93Q). Description: IL-17A(FLAG-Tagged): IL-17RA(His-Tagged) Binding Disruption Eu-HTRF Assay. The conditions noted are these: IL-17A/IL-17RA binding disruption, simple average if tested more than once. The essentials:
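IC50 comes from a one-site competition fit of the HTRF 665/620 nm ratio. Compound dilutions (2-fold, 22 points) were held 1 h rt with FLAG-tagged IL-17A dimer, then His-tagged IL-17RA plus Eu-cryptate anti-FLAG and D2 anti-His antibodies were added for 2 h rt.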

Experiment [2] deals with IL-17A-induced G-CSF production in human normal keratinocyte (NHK). Description: NHK Assay: IL-17A-induced G-CSF production in human normal keratinocytes. It counts as cell-based. Conditions: Homo sapiens, Keratinocyte, 24 h, adult normal human keratinocytes, IL-17A 5 ng/mL, simple average if tested more than once. The gist of the method:
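HTRF read-out of supernatant G-CSF, quantified from a standard curve, gave IC50 values. Adult keratinocytes, 3000-4000 cells/well, received human IL-17A (5 ng/mL final) pre-mixed 1 h at rt with compound, in 5% FBS and 0.2% DMSO, 24 h at 37° C.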

Chain of UniProt Q16552 (Q16552 with tags, fused parts or gaps K93Q): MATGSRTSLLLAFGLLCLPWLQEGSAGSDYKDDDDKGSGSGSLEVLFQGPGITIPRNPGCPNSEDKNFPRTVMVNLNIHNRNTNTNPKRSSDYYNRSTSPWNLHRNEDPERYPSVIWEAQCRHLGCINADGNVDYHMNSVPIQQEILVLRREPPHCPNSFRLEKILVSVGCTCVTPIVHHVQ

Regarding `CC(C)Oc1cc(C(=O)N[C@H](c2cn3ncc([C@H](NC(=O)CCC(F)(F)F)C4CC4)cc3n2)C2CCC(F)(F)CC2)ccn1` [Example 175, N—((S)-(7-((R)-Cyclopropyl(4,4,4-trifluorobutanamido)methyl)imidazo[1,2-b]pyridazin-2-yl)(4,4-difluorocyclohexyl)methyl)-2-isopropoxyisonicotinamide], the figures for the half-maximal inhibitory concentration (IC50) in experiment [1] and in experiment [2] were 80 nM and 400 nM, respectively.
On the same counts, the results for `O=C(CCC(F)(F)F)N[C@@H](c1cnn2cc([C@@H](NC(=O)c3cncc(N4CCCC4=O)c3)C3CCC(F)(F)CC3)nc2c1)C1CC1` [Example 176, N—((S)-(7-((R)-Cyclopropyl(4,4,4-trifluorobutanamido)methyl)imidazo[1,2-b]pyridazin-2-yl)(4,4-difluorocyclohexyl)methyl)-5-(2-oxopyrrolidin-1-yl)nicotinamide] are 110 nM and 420 nM.
For the compound `CCOc1cc(C(=O)N[C@H](c2cn3ncc([C@H](NC(=O)CCC(F)(F)F)C4CC4)cc3n2)C2CCC(F)(F)CC2)ccn1` [Example 177, N—((S)-(7-((R)-Cyclopropyl(4,4,4-trifluorobutanamido)methyl)imidazo[1,2-b]pyridazin-2-yl)(4,4-difluorocyclohexyl)methyl)-2-ethoxyisonicotinamide], the IC50 in experiment [1] is 53 nM; in experiment [2], 440 nM.
For `O=C(CCC(F)(F)F)N[C@@H](c1cnn2cc([C@@H](NC(=O)c3cncc(C(F)(F)F)c3)C3CCC(F)(F)CC3)nc2c1)C1CC1` [Example 178, N—((S)-(7-((R)-Cyclopropyl(4,4,4-trifluorobutanamido)methyl)imidazo[1,2-b]pyridazin-2-yl)(4,4-difluorocyclohexyl)methyl)-5-(trifluoromethyl)nicotinamide], the IC50 is 67 nM in experiment [1] and 450 nM in experiment [2].
On to `O=C(CCC(F)(F)F)N[C@@H](c1cnn2cc([C@@H](NC(=O)c3ccnc(OCC(F)F)c3)C3CCC(F)(F)CC3)nc2c1)C1CC1` [Example 179, N—((S)-(7-((R)-Cyclopropyl(4,4,4-trifluorobutanamido)methyl)imidazo[1,2-b]pyridazin-2-yl)(4,4-difluorocyclohexyl)methyl)-2-(2,2-difluoroethoxy)isonicotinamide], for which the IC50 in experiment [1] came out at 45 nM; in experiment [2], 450 nM.
On the same counts, the results for `O=C(CCC(F)(F)F)N[C@@H](c1cnn2cc([C@@H](NC(=O)c3cccc(OCC4CC4)c3)C3CCC(F)(F)CC3)nc2c1)C1CC1` [Example 180, N—((S)-(7-((R)-Cyclopropyl(4,4,4-trifluorobutanamido)methyl)imidazo[1,2-b]pyridazin-2-yl)(4,4-difluorocyclohexyl)methyl)-3-(cyclopropylmethoxy)benzamide] are 130 nM and 450 nM.
For `O=C(CCC(F)(F)F)N[C@@H](c1cnn2cc([C@@H](NC(=O)c3ccnc(OC4CCC4)c3)C3CCC(F)(F)CC3)nc2c1)C1CC1` [Example 181, 2-Cyclobutoxy-N—((S)-(7-((R)-cyclopropyl(4,4,4-trifluorobutanamido)methyl)imidazo[1,2-b]pyridazin-2-yl)(4,4-difluorocyclohexyl)methyl)isonicotinamide], in that order: 80 nM and 460 nM.
On the same counts, the results for `O=C(CCC(F)(F)F)N[C@@H](c1cnn2cc([C@@H](NC(=O)c3ccc(F)cc3)C3CCC(F)(F)CC3)nc2c1)C1CC1` [Example 182, N—((S)-(7-((R)-Cyclopropyl(4,4,4-trifluorobutanamido)methyl)imidazo[1,2-b]pyridazin-2-yl)(4,4-difluorocyclohexyl)methyl)-4-fluorobenzamide] are 85 nM and 510 nM.
For the compound `O=C(CCC(F)(F)F)N[C@@H](c1cnn2cc([C@@H](NC(=O)c3cncc(OCC(F)F)c3)C3CCC(F)(F)CC3)nc2c1)C1CC1` [Example 183, N—((S)-(7-((R)-Cyclopropyl(4,4,4-trifluorobutanamido)methyl)imidazo[1,2-b]pyridazin-2-yl)(4,4-difluorocyclohexyl)methyl)-5-(2,2-difluoroethoxy)nicotinamide], the values for the IC50 in experiment [1] and in experiment [2] were 69 nM and 520 nM, respectively.
Consider `COc1cc(C(=O)N[C@H](c2cn3ncc([C@H](NC(=O)CCC(F)(F)F)C4CC4)cc3n2)C2CCC(F)(F)CC2)ccn1` [Example 184, N—((S)-(7-((R)-Cyclopropyl(4,4,4-trifluorobutanamido)methyl)imidazo[1,2-b]pyridazin-2-yl)(4,4-difluorocyclohexyl)methyl)-2-methoxyisonicotinamide], for which the IC50 in experiment [1] turned out to be 110 nM; in experiment [2] it was 590 nM.
For `CC(C)Oc1cncc(C(=O)N[C@H](c2cn3ncc([C@H](NC(=O)CCC(F)(F)F)C4CC4)cc3n2)C2CCC(F)(F)CC2)c1` [Example 185, N—((S)-(7-((R)-Cyclopropyl(4,4,4-trifluorobutanamido)methyl)imidazo[1,2-b]pyridazin-2-yl)(4,4-difluorocyclohexyl)methyl)-5-isopropoxynicotinamide], in that order: 45 nM and 690 nM.
On the same counts, the results for `O=C(CCC(F)(F)F)N[C@@H](c1cnn2cc([C@@H](NC(=O)c3ccnc(OC(F)F)c3)C3CCC(F)(F)CC3)nc2c1)C1CC1` [Example 186, N—((S)-(7-((R)-Cyclopropyl(4,4,4-trifluorobutanamido)methyl)imidazo[1,2-b]pyridazin-2-yl)(4,4-difluorocyclohexyl)methyl)-2-(difluoromethoxy)isonicotinamide] are 110 nM and 720 nM.
On the same counts, the results for `O=C(CCC(F)(F)F)N[C@@H](c1cnn2cc([C@@H](NC(=O)c3ccccc3C(F)F)C3CCC(F)(F)CC3)nc2c1)C1CC1` [Example 187, N—((S)-(7-((R)-Cyclopropyl(4,4,4-trifluorobutanamido)methyl)imidazo[1,2-b]pyridazin-2-yl)(4,4-difluorocyclohexyl)methyl)-2-(difluoromethyl)benzamide] are 260 nM and 730 nM.
For `N#Cc1cccc(C(=O)N[C@H](c2cn3ncc([C@H](NC(=O)CCC(F)(F)F)C4CC4)cc3n2)C2CCC(F)(F)CC2)c1` [Example 188, 3-Cyano-N—((S)-(7-((R)-cyclopropyl(4,4,4-trifluorobutanamido)methyl)imidazo[1,2-b]pyridazin-2-yl)(4,4-difluorocyclohexyl)methyl)benzamide], the half-maximal inhibitory concentration (IC50) in experiment [1] came out at 150 nM; in experiment [2], 750 nM.
As to `COc1cncc(C(=O)N[C@H](c2cn3ncc([C@H](NC(=O)CCC(F)(F)F)C4CC4)cc3n2)C2CCC(F)(F)CC2)c1` [Example 189, N—((S)-(7-((R)-Cyclopropyl(4,4,4-trifluorobutanamido)methyl)imidazo[1,2-b]pyridazin-2-yl)(4,4-difluorocyclohexyl)methyl)-5-methoxynicotinamide], the values for the 50% inhibitory concentration (IC50) in experiment [1] and in experiment [2] were 230 nM and 810 nM, respectively.
On the same counts, the results for `O=C(CCC(F)(F)F)N[C@@H](c1cnn2cc([C@@H](NC(=O)c3ccncc3)C3CCC(F)(F)CC3)nc2c1)C1CC1` [Example 190, N—((S)-(7-((R)-Cyclopropyl(4,4,4-trifluorobutanamido)methyl)imidazo[1,2-b]pyridazin-2-yl)(4,4-difluorocyclohexyl)methyl)isonicotinamide] are 220 nM and 820 nM.
For `O=C(CCC(F)(F)F)N[C@@H](c1cnn2cc([C@@H](NC(=O)c3ccnc4c3CCC4)C3CCC(F)(F)CC3)nc2c1)C1CC1` [Example 191, N—((S)-(7-((R)-Cyclopropyl(4,4,4-trifluorobutanamido)methyl)imidazo[1,2-b]pyridazin-2-yl)(4,4-difluorocyclohexyl)methyl)-6,7-dihydro-5H-cyclopenta[b]pyridine-4-carboxamide], in that order: 290 nM and 1100 nM.
On the same counts, the results for `O=C(CCC(F)(F)F)N[C@@H](c1cnn2cc([C@@H](NC(=O)c3cccnc3)C3CCC(F)(F)CC3)nc2c1)C1CC1` [Example 192, N—((S)-(7-((R)-Cyclopropyl(4,4,4-trifluorobutanamido)methyl)imidazo[1,2-b]pyridazin-2-yl)(4,4-difluorocyclohexyl)methyl)nicotinamide] are 240 nM and 1200 nM.
With `O=C(CCC(F)(F)F)N[C@@H](c1cnn2cc([C@@H](NC(=O)c3cccnc3C3CC3)C3CCC(F)(F)CC3)nc2c1)C1CC1` [Example 193, 2-Cyclopropyl-N—((S)-(7-((R)-cyclopropyl(4,4,4-trifluorobutanamido)methyl)imidazo[1,2-b]pyridazin-2-yl)(4,4-difluorocyclohexyl)methyl)nicotinamide], the concentration for half-maximal inhibition (IC50) in experiment [1] stood at 500 nM; in experiment [2], 1300 nM.
`O=C(CCC(F)(F)F)N[C@@H](c1cnn2cc([C@@H](NC(=O)c3ccnc(C(F)(F)F)c3)C3CCC(F)(F)CC3)nc2c1)C1CC1` [Example 194, N—((S)-(7-((R)-Cyclopropyl(4,4,4-trifluorobutanamido)methyl)imidazo[1,2-b]pyridazin-2-yl)(4,4-difluorocyclohexyl)methyl)-2-(trifluoromethyl)isonicotinamide]: the IC50 stood at 140 nM in experiment [1] and 1600 nM in experiment [2].
As to `O=C(CCC(F)(F)F)N[C@@H](c1cnn2cc([C@@H](NC(=O)c3ccncc3F)C3CCC(F)(F)CC3)nc2c1)C1CC1` [Example 195, N—((S)-(7-((R)-Cyclopropyl(4,4,4-trifluorobutanamido)methyl)imidazo[1,2-b]pyridazin-2-yl)(4,4-difluorocyclohexyl)methyl)-3-fluoroisonicotinamide], the IC50 in experiment [1] was 580 nM; in experiment [2] it was 1600 nM.
